Experimental data as given in PubChem BioAssay AID1918935 (Molecular Pharmacology Branch, DTP, NCI, 2023).
Several values for one entry are separate records, joined by “and”; a condition that tells them apart may be missing. Equal values may be shown once.

Tested on: 324938-238-R-J1-PDC complex spheroid viability
Assay: Anticancer human tumor 324938-238-R-J1-PDC patient-derived bladder carcinoma cell line growth inhibition
Settings: for viability, T/C: stronger effect = lower value
Outline: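 Drug combinations with the LSD1 inhibitor iadademstat tested on tumor cells co-cultured as spheroids with endothelial cells and mesenchymal stem cells. Concentrations descended in half-log increments from clinical Cmax or 10 microM.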

[1] = curve of first compound, second compound 0.1 µM
[2] = curve of first compound, second compound 0.316 µM
[3] = curve of first compound, second compound 1 µM
[4] = curve of first compound, second compound 3.16 µM
[5] = curve of first compound, second compound 10 µM
[6] = second compound 0.1 µM, first compound 0.0316 µM
[7] = second compound 0.1 µM, first compound 0.1 µM
[8] = second compound 0.1 µM, first compound 0.316 µM
[9] = second compound 0.1 µM, first compound 1 µM
[10] = second compound 0.1 µM, first compound 3.16 µM
[11] = second compound 0.1 µM, first compound 10 µM
[12] = second compound 0.316 µM, first compound 0.0316 µM
[13] = second compound 0.316 µM, first compound 0.1 µM
[14] = second compound 0.316 µM, first compound 0.316 µM
[15] = second compound 0.316 µM, first compound 1 µM
[16] = second compound 0.316 µM, first compound 3.16 µM
[17] = second compound 0.316 µM, first compound 10 µM
[18] = second compound 1 µM, first compound 0.0316 µM
[19] = second compound 1 µM, first compound 0.1 µM
[20] = second compound 1 µM, first compound 0.316 µM
[21] = second compound 1 µM, first compound 1 µM
[22] = second compound 1 µM, first compound 3.16 µM
[23] = second compound 1 µM, first compound 10 µM
[24] = second compound 3.16 µM, first compound 0.0316 µM
[25] = second compound 3.16 µM, first compound 0.1 µM
[26] = second compound 3.16 µM, first compound 0.316 µM
[27] = second compound 3.16 µM, first compound 1 µM
[28] = second compound 3.16 µM, first compound 3.16 µM
[29] = second compound 3.16 µM, first compound 10 µM
[30] = second compound 10 µM, first compound 0.0316 µM
[31] = second compound 10 µM, first compound 0.1 µM
[32] = second compound 10 µM, first compound 0.316 µM
[33] = second compound 10 µM, first compound 1 µM
[34] = second compound 10 µM, first compound 3.16 µM
[35] = second compound 10 µM, first compound 10 µM
[36] = second compound 0.1 µM, first compound 0.000949 µM
[37] = second compound 0.1 µM, first compound 0.003 µM
[38] = second compound 0.1 µM, first compound 0.00949 µM
[39] = second compound 0.1 µM, first compound 0.03 µM
[40] = second compound 0.1 µM, first compound 0.0949 µM
[41] = second compound 0.1 µM, first compound 0.3 µM
[42] = second compound 0.316 µM, first compound 0.000949 µM
[43] = second compound 0.316 µM, first compound 0.003 µM
[44] = second compound 0.316 µM, first compound 0.00949 µM
[45] = second compound 0.316 µM, first compound 0.03 µM
[46] = second compound 0.316 µM, first compound 0.0949 µM
[47] = second compound 0.316 µM, first compound 0.3 µM
[48] = second compound 1 µM, first compound 0.000949 µM
[49] = second compound 1 µM, first compound 0.003 µM
[50] = second compound 1 µM, first compound 0.00949 µM
[51] = second compound 1 µM, first compound 0.03 µM
[52] = second compound 1 µM, first compound 0.0949 µM
[53] = second compound 1 µM, first compound 0.3 µM
[54] = second compound 3.16 µM, first compound 0.000949 µM
[55] = second compound 3.16 µM, first compound 0.003 µM
[56] = second compound 3.16 µM, first compound 0.00949 µM
[57] = second compound 3.16 µM, first compound 0.03 µM
[58] = second compound 3.16 µM, first compound 0.0949 µM
[59] = second compound 3.16 µM, first compound 0.3 µM
[60] = second compound 10 µM, first compound 0.000949 µM
[61] = second compound 10 µM, first compound 0.003 µM
[62] = second compound 10 µM, first compound 0.00949 µM
[63] = second compound 10 µM, first compound 0.03 µM
[64] = second compound 10 µM, first compound 0.0949 µM
[65] = second compound 10 µM, first compound 0.3 µM
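Note: spheroids also contain HUVEC and human MSCs and agents combined with iadademstat; spheroids exposed to agents for 7 days before readout.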

## CC(C)c1c(-c2ccccc2)nc2c(C#N)c[nH]n2c1=O + NC1CCC(NC2CC2c2ccccc2)CC1
[1]
  IC50: > 10 µM
[2]
  IC50: > 10 µM
[3]
  IC50: > 10 µM
[4]
  IC50: > 10 µM
[5]
  IC50: > 10 µM
[6]
  viability, T/C: 69.7%
[7]
  viability, T/C: 90%
[8]
  viability, T/C: 85.2%
[9]
  viability, T/C: 89.2%
[10]
  viability, T/C: 82.2%
[11]
  viability, T/C: 74.6%
[12]
  viability, T/C: 83%
[13]
  viability, T/C: 84.1%
[14]
  viability, T/C: 84.4%
[15]
  viability, T/C: 84.8%
[16]
  viability, T/C: 81.4%
[17]
  viability, T/C: 78.7%
[18]
  viability, T/C: 87%
[19]
  viability, T/C: 90%
[20]
  viability, T/C: 78.2%
[21]
  viability, T/C: 84.9%
[22]
  viability, T/C: 81.6%
[23]
  viability, T/C: 80.9%
[24]
  viability, T/C: 72.8%
[25]
  viability, T/C: 78.9%
[26]
  viability, T/C: 87.7%
[27]
  viability, T/C: 80.6%
[28]
  viability, T/C: 80.1%
[29]
  viability, T/C: 74.3%
[30]
  viability, T/C: 66.5%
[31]
  viability, T/C: 70.7%
[32]
  viability, T/C: 75.9%
[33]
  viability, T/C: 75.1%
[34]
  viability, T/C: 65.6%
[35]
  viability, T/C: 77.9%

## O=C(C=Cc1cccc(S(=O)(=O)Nc2ccccc2)c1)NO
Compound 0.00949 µM
  viability, T/C: 95.5% and 107%
Compound 0.03 µM
  viability, T/C: 89.1% and 92.1%
Compound 0.0949 µM
  viability, T/C: 71% and 70%
Compound 0.3 µM
  viability, T/C: 46.1% and 42.8%
Compound 0.949 µM
  viability, T/C: 26.1% and 24.2%
Compound 3 µM
  viability, T/C: 4.98% and 3.24%
Curve of compound
  IC50: 0.273 µM and 0.237 µM

## Nc1ccn(C2OC(CO)C(O)C2(F)F)c(=O)n1 (centres undefined) + NC1CC1c1ccc(-c2cccc(O)c2)cc1
[1]
  IC50: < 0.000949 µM
[2]
  IC50: < 0.000949 µM
[3]
  IC50: < 0.000949 µM
[4]
  IC50: < 0.000949 µM
[5]
  IC50: < 0.000949 µM
[36]
  viability, T/C: 11.1%
[37]
  viability, T/C: 8.09%
[38]
  viability, T/C: 6.87%
[39]
  viability, T/C: 6.29%
[40]
  viability, T/C: 6.35%
[41]
  viability, T/C: 5.04%
[42]
  viability, T/C: 10.9%
[43]
  viability, T/C: 7.27%
[44]
  viability, T/C: 5.74%
[45]
  viability, T/C: 5.98%
[46]
  viability, T/C: 5.39%
[47]
  viability, T/C: 5.59%
[48]
  viability, T/C: 11%
[49]
  viability, T/C: 7.32%
[50]
  viability, T/C: 5.8%
[51]
  viability, T/C: 6.74%
[52]
  viability, T/C: 5.16%
[53]
  viability, T/C: 4.64%
[54]
  viability, T/C: 10.4%
[55]
  viability, T/C: 6.79%
[56]
  viability, T/C: 7.61%
[57]
  viability, T/C: 5.95%
[58]
  viability, T/C: 5.45%
[59]
  viability, T/C: 5.23%
[60]
  viability, T/C: 15.8%
[61]
  viability, T/C: 11.2%
[62]
  viability, T/C: 10.4%
[63]
  viability, T/C: 7.49%
[64]
  viability, T/C: 5.31%
[65]
  viability, T/C: 5.65%

## COc1ccc([C@@H](O)c2cc(-c3ncnc4cc(N5CCOCC5)ccc34)c(F)cc2Cl)nn1 + NC1CCC(NC2CC2c2ccccc2)CC1
[1]
  IC50: 1.75 µM
[2]
  IC50: 1.87 µM
[3]
  IC50: 1.33 µM
[4]
  IC50: 0.944 µM
[5]
  IC50: 1.09 µM
[6]
  viability, T/C: 81.4%
[7]
  viability, T/C: 70.8%
[8]
  viability, T/C: 63.3%
[9]
  viability, T/C: 61.1%
[10]
  viability, T/C: 42.8%
[11]
  viability, T/C: 26.8%
[12]
  viability, T/C: 80.8%
[13]
  viability, T/C: 76.7%
[14]
  viability, T/C: 61.4%
[15]
  viability, T/C: 58%
[16]
  viability, T/C: 47.7%
[17]
  viability, T/C: 28.9%
[18]
  viability, T/C: 72.9%
[19]
  viability, T/C: 73.4%
[20]
  viability, T/C: 65.2%
[21]
  viability, T/C: 50.3%
[22]
  viability, T/C: 42.6%
[23]
  viability, T/C: 28.5%
[24]
  viability, T/C: 70%
[25]
  viability, T/C: 78%
[26]
  viability, T/C: 59.3%
[27]
  viability, T/C: 48.4%
[28]
  viability, T/C: 38.3%
[29]
  viability, T/C: 26.4%
[30]
  viability, T/C: 64.8%
[31]
  viability, T/C: 76.5%
[32]
  viability, T/C: 61.6%
[33]
  viability, T/C: 50.2%
[34]
  viability, T/C: 37%
[35]
  viability, T/C: 26%

## Nc1ccn(C2OC(CO)C(O)C2(F)F)c(=O)n1 (centres undefined)
Compound 0.000949 µM
  viability, T/C: 11.4% and 15.4%
Compound 0.003 µM
  viability, T/C: 8.21% and 9.09%
Compound 0.00949 µM
  viability, T/C: 7.58% and 8.65%
Compound 0.03 µM
  viability, T/C: 6.97% and 8.11%
Compound 0.0949 µM
  viability, T/C: 5.95% and 6.14%
Compound 0.3 µM
  viability, T/C: 5.04% and 6.97%
Curve of compound
  IC50: < 0.000949 µM

## Nc1ccn(C2OC(CO)C(O)C2(F)F)c(=O)n1 (centres undefined) + NC1CCC(NC2CC2c2ccccc2)CC1
[1]
  IC50: < 0.000949 µM
[2]
  IC50: < 0.000949 µM
[3]
  IC50: < 0.000949 µM
[4]
  IC50: < 0.000949 µM
[5]
  IC50: < 0.000949 µM
[36]
  viability, T/C: 7.42%
[37]
  viability, T/C: 7.71%
[38]
  viability, T/C: 7.38%
[39]
  viability, T/C: 6.53%
[40]
  viability, T/C: 5.05%
[41]
  viability, T/C: 5.23%
[42]
  viability, T/C: 10.3%
[43]
  viability, T/C: 7.95%
[44]
  viability, T/C: 6.91%
[45]
  viability, T/C: 7.37%
[46]
  viability, T/C: 5.53%
[47]
  viability, T/C: 5.05%
[48]
  viability, T/C: 9.63%
[49]
  viability, T/C: 9.08%
[50]
  viability, T/C: 8.5%
[51]
  viability, T/C: 7.08%
[52]
  viability, T/C: 5.53%
[53]
  viability, T/C: 5.33%
[54]
  viability, T/C: 10.8%
[55]
  viability, T/C: 8.82%
[56]
  viability, T/C: 9.28%
[57]
  viability, T/C: 7.53%
[58]
  viability, T/C: 5.27%
[59]
  viability, T/C: 5.32%
[60]
  viability, T/C: 11.8%
[61]
  viability, T/C: 9.1%
[62]
  viability, T/C: 9.36%
[63]
  viability, T/C: 8.14%
[64]
  viability, T/C: 4.93%
[65]
  viability, T/C: 5.8%
